{
  "source": "patent US12029798B2",
  "about": "“Pre-targeting strategies for molecular imaging and/or radioimmunotherapy” (UNIVERSITY OF PITTSBURGH—OF THE COMMONWEALTH SYSTEM OF …, priority 2016, dated 2024)",
  "origin": "cited, not measured here",
  "details": "reaction with azides",
  "data": [
    {"substance": "oxa-dibenzocyclooctynes [ODIBO]", "values": [
      {"measurement": "cycloaddition rate", "result": 43, "unit": "M^−1S^−1"}
    ]}
  ]
}
